Measured values taken from patent publication US10870647B2, “Imidazopyridine derivative, method for preparing same, and pharmaceutical composition containing same as active ingredient for preventing or treating cancer” (DAEGU-GYEONGBUK MEDICAL INNOVATION FOUNDATION, priority 2016, dated 2020).

Legend:
Assay in all cases: Kinase selectivity, scanMAX Kinase assay panel (DiscoverX), % control at 1 uM
Type in all cases: binding
[1] = molecular target: T1, scanMAX Kinase assay panel (Homo sapiens, UniProt O75385); conditions: ULK1; 1 uM; read-out: Percent Control (%)
T1 construct: purchased DiscoverX
T1 sequence (O75385 1-1050): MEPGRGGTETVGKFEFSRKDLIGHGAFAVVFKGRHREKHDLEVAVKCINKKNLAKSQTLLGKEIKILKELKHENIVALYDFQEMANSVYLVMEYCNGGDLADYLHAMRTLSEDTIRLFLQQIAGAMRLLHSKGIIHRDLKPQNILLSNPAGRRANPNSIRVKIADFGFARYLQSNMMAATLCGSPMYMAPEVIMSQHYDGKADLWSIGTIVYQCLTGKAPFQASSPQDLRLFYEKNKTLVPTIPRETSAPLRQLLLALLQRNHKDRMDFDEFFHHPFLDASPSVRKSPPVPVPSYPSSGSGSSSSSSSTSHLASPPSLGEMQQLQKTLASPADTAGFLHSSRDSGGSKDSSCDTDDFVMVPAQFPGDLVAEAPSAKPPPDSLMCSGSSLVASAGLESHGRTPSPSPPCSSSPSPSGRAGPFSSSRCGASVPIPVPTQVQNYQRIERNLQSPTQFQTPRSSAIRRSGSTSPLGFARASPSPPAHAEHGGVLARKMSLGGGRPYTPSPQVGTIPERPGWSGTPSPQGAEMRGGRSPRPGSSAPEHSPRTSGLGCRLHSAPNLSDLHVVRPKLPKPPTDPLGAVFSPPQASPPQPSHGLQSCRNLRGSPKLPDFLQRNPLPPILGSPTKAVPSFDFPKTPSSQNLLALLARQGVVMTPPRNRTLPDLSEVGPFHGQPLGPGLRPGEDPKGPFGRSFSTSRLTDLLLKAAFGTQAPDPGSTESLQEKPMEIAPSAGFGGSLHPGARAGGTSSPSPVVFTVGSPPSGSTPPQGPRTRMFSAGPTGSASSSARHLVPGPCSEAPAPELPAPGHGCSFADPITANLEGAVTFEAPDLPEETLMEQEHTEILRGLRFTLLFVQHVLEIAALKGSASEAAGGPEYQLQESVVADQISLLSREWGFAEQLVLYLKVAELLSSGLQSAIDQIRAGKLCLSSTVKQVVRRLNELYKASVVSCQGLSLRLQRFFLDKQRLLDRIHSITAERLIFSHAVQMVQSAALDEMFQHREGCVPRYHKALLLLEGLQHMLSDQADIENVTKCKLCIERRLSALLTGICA
Method in brief: (§1)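 Binding across the scanMAX kinase panel was tested at 1 uM compound. % control = (compound − positive control)/(negative control − positive control) × 100; below 35 counted as active.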

[2] = molecular target: T2, scanMAX Kinase assay panel (Homo sapiens, UniProt O95835); conditions: LATS1; 1 uM; read-out: Percent Control (%)
T2 construct: purchased DiscoverX
T2 sequence (O95835 1-1130): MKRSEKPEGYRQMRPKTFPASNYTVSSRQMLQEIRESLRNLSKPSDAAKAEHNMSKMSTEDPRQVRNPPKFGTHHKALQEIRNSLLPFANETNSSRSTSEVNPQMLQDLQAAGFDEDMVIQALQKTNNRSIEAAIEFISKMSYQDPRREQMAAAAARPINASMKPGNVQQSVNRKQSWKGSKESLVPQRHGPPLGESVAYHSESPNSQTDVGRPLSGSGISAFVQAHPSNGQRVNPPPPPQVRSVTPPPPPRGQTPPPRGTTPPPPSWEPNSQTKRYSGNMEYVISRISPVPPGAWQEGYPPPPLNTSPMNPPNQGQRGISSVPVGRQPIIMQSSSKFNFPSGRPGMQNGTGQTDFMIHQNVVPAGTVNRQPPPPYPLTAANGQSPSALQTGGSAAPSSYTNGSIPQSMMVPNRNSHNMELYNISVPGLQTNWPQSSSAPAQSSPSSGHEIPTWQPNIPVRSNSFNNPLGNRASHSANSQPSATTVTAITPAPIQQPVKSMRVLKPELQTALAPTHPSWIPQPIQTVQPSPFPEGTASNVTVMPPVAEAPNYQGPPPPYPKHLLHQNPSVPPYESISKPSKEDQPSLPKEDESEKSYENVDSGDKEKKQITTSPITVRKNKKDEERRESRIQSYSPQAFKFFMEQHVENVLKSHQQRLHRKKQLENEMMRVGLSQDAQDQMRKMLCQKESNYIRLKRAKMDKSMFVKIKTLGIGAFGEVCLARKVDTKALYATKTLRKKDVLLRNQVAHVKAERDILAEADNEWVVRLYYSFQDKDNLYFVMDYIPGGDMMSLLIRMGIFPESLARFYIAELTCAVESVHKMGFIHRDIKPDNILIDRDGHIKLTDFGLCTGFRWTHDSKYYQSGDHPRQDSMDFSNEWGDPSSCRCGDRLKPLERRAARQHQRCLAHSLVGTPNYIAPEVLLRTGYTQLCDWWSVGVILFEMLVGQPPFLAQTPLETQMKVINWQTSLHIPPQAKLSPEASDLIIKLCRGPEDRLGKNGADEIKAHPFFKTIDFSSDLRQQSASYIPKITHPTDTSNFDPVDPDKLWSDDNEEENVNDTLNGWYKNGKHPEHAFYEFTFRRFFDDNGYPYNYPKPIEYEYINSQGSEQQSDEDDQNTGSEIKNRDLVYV
Method in brief: as §1

[3] = molecular target: T3, scanMAX Kinase assay panel (Homo sapiens, UniProt Q99558); conditions: NIK; 1 uM; read-out: Percent Control (%)
T3 construct: purchased DiscoverX
Method in brief: as §1

[4] = molecular target: T4, scanMAX Kinase assay panel (Homo sapiens, UniProt O95819); conditions: MAP4K4; 1 uM; read-out: Percent Control (%)
T4 construct: purchased DiscoverX
Method in brief: as §1

[5] = molecular target: T5, scanMAX Kinase assay panel (Homo sapiens, UniProt Q96GD4); conditions: AURKB; 1 uM; read-out: Percent Control (%)
T5 construct: purchased DiscoverX
Method in brief: as §1

[6] = molecular target: T6, scanMAX Kinase assay panel (Homo sapiens, UniProt Q9HC98); conditions: NEK6; 1 uM; read-out: Percent Control (%)
T6 construct: purchased DiscoverX
Method in brief: as §1

T4 sequence (O95819 whole entry): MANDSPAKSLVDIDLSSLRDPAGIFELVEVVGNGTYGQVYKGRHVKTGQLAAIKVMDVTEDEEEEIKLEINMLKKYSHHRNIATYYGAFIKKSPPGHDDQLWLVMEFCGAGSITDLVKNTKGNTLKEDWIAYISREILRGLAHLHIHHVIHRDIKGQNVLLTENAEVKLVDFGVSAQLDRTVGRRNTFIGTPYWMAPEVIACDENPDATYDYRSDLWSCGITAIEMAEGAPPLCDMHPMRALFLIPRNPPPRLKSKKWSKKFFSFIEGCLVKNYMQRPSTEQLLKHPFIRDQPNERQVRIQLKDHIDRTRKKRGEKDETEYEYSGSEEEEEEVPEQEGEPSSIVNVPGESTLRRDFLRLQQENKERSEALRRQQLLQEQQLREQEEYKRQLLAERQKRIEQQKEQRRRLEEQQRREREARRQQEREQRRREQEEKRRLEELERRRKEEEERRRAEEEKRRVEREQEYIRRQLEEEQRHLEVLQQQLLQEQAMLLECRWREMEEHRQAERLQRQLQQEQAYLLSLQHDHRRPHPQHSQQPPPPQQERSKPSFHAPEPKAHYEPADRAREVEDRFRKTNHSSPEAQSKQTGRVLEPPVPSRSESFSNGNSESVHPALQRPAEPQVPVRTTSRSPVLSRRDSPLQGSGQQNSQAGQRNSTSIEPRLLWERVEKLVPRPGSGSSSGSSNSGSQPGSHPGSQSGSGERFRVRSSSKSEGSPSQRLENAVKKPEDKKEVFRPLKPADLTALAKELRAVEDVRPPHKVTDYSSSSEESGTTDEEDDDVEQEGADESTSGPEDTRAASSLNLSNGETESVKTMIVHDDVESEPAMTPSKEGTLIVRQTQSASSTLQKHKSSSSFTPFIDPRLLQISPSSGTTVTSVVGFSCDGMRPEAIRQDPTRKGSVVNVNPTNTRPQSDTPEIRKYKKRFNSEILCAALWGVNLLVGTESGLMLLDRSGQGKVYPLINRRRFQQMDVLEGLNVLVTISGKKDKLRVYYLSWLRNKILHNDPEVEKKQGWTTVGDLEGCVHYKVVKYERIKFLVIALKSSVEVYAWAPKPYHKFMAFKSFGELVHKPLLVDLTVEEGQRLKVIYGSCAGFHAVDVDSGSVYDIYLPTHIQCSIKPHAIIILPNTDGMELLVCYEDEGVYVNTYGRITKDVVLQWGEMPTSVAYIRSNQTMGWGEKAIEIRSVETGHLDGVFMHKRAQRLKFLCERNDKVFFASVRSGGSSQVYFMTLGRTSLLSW
T6 sequence (Q9HC98 whole entry): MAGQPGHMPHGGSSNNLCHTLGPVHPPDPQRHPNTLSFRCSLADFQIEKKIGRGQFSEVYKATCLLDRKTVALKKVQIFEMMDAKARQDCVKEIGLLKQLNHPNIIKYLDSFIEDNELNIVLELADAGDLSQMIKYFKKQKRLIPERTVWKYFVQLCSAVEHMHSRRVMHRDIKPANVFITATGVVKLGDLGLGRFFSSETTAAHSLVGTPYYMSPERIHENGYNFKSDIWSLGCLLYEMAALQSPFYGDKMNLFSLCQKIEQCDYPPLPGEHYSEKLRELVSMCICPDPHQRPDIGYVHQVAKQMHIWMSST
T3 sequence (Q99558 whole entry): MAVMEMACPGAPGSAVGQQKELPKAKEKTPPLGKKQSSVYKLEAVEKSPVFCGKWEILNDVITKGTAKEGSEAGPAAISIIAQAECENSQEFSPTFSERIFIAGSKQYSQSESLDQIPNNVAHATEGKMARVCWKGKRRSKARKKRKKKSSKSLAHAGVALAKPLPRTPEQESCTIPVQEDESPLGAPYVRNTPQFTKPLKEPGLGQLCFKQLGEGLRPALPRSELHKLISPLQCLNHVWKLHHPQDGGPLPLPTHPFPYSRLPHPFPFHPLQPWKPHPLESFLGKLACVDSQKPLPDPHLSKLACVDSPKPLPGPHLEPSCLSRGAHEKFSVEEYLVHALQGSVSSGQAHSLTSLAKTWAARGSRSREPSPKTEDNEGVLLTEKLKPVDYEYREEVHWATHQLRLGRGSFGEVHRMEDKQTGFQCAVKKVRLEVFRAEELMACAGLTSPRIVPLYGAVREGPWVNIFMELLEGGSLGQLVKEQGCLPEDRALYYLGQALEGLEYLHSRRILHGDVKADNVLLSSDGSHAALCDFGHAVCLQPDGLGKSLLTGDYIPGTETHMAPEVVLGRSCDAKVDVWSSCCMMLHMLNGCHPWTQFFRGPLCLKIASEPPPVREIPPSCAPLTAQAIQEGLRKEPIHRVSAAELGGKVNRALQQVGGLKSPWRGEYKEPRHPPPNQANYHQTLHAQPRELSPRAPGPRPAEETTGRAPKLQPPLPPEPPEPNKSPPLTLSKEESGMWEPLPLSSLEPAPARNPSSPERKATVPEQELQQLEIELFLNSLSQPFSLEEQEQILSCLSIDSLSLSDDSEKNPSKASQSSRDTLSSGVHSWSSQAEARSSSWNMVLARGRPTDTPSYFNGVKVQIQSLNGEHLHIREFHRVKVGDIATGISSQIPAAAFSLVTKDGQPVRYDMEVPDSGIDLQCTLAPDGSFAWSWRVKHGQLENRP
T5 sequence (Q96GD4 whole entry): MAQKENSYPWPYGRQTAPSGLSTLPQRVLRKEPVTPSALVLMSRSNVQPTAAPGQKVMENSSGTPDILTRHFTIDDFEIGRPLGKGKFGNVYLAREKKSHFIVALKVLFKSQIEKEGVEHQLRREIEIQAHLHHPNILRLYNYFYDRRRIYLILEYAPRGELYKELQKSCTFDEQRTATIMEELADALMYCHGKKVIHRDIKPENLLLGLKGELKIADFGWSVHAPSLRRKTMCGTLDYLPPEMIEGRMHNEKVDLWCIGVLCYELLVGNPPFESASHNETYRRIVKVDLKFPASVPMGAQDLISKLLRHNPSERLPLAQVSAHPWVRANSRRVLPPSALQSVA

| SMILES | remaining binding at 1 µM [1] [%] | remaining binding at 1 µM [2] [%] | remaining binding at 1 µM [3] [%] | remaining binding at 1 µM [4] [%] | remaining binding at 1 µM [5] [%] | remaining binding at 1 µM [6] [%] |
| --- | --- | --- | --- | --- | --- | --- |
| Cc1ccc(NC(=O)C2(C(=O)Nc3ccc(F)cc3)CC2)cc1C#Cc1cnc2c(Nc3cnn(C(C)C)c3)cccn12 [Example 78] | 100 | 82 | 97 | 99 | 34 | 100 |
| Cc1cn(-c2cc(NC(=O)c3ccc(C)c(C#Cc4cnc5c(Nc6cnn(C)c6)cccn45)c3)cc(C(F)(F)F)c2)cn1 [Example 12, 4-methyl-N-(3-(4-methyl-1H-imidazol-1-yl)-5-(trifluoromethyl)phenyl)-3-((8-((1-methyl-1H-pyrazol-4-yl)amino)imidazo[1,2-a]pyridin-3-yl)ethynyl)benzamide] | 100 | 96 | 85 | 4 | 56 | 88 |
| Cc1ccc(C(=O)Nc2ccc(CN3CCN(C)CC3)c(C(F)(F)F)c2)cc1C#Cc1cnc2c(Nc3cnn(C)c3)cccn12 [Example 1, 4-methyl-3-((8-((1-methyl-1H-pyrazol-4-yl)amino)imidazo[1,2-a]pyridin-3-yl)ethynyl)-N-(4-((4-methylpiperazin-1-yl)methyl)-3-(trifluoromethyl)phenyl)benzamide] | 68 | 40 | 91 | 1 | 3 | 65 |
